We go through 15 molecules from article PMC9217978, “Design, synthesis, in vitro α-glucosidase inhibition, docking, and molecular dynamics of new phthalimide-benzenesulfonamide hybrids for targeting type 2 diabetes” (Scientific Reports, 2022).

In one data set the target is α-glucosidase. Conditions: read-out: IC50 against α-glucosidase, cited from earlier work.
The target of the next data set is yeast α-glucosidase (Saccharomyces cerevisiae, UniProt P53341). As to the kind of experiment: biochemical. Conditions: for α-glucosidase inhibitory activity, in words: SAR discussion; for IC50: read-out: IC50 (μM), in vitro α-glucosidase inhibitory activity. The data set is classed as biochemical. From the text: On the other hand, there are phenyl, 4-methylphenyl, and or 4-methoxyphenyl groups in the benzenesulfonamide moiety.

In another data set the target is T1, α-amylase (Homo sapiens, UniProt P04746).
T1 sequence (P04746 16-511): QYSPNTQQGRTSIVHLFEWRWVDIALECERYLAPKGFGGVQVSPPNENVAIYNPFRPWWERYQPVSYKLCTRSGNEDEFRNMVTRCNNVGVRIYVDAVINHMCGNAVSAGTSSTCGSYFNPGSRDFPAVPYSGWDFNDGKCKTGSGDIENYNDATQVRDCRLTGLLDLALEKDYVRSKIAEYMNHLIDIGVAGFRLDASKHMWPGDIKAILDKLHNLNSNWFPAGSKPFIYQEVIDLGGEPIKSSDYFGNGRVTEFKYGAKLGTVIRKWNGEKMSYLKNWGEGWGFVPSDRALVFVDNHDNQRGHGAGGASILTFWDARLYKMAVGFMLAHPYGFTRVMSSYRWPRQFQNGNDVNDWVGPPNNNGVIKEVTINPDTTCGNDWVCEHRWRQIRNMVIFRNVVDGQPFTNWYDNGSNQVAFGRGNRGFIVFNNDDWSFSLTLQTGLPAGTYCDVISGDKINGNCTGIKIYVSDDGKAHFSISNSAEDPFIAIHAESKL
The experiment in a line: In vitro α-amylase inhibition assay. Conditions: at 300 μM. The data set is classed as biochemical.

Where two headings read alike, the source gives them in different places.

yeast α-glucosidase, sequence (P53341 whole entry): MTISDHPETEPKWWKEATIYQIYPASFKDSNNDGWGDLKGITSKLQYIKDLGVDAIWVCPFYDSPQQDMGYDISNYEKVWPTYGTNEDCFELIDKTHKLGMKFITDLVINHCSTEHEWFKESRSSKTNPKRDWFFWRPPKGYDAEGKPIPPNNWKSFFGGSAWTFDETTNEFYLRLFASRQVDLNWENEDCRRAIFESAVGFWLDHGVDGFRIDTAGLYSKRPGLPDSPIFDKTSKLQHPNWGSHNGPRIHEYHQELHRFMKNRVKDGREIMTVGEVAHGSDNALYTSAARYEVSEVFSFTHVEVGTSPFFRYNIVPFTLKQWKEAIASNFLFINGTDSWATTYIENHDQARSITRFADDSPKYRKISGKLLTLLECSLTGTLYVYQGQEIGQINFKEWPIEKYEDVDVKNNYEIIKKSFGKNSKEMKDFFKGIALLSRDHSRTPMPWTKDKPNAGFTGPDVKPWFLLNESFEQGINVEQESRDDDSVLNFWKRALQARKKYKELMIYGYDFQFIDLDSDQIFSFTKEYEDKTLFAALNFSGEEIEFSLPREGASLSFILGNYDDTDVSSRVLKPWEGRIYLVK

On to `O=C1c2ccccc2C(=O)N1CCCOc1ccc(Cl)c(Cl)c1` [A], for which, on α-glucosidase (Fig. 2, phthalimide derivative A study), the IC50 (usually the concentration at which inhibition is half-maximal) was 7.55 µM.

As for `Cc1ccc(S(=O)(=O)Nc2ccc3c(c2)C(=O)N(CCOc2ccc(O)cc2)C3=O)cc1` [B], the IC50 at α-glucosidase (Fig. 2, phthalimide-benzenesulfonamid B study) was 25.5 µM. Turning to `O=C1c2ccccc2C(=O)N1CCC(=NS(=O)(=O)c1ccccc1)N1CCCCC1` [Compound 4a, N-(3-(1,3-Dioxoisoindolin-2-yl)-1-(piperidin-1-yl)propylidene)benzenesulfonamide], the melting point (usually the temperature of the solid-liquid transition) was in the range of 158 to 160 °C. Further, on yeast α-glucosidase, the “α-glucosidase inhibitory activity, in words” value is “inactive”. `Cc1ccc(S(=O)(=O)N=C(CCN2C(=O)c3ccccc3C2=O)N2CCCCC2)cc1` [Compound 4b, N-(3-(1,3-Dioxoisoindolin-2-yl)-1-(piperidin-1-yl)propylidene)-4-methylbenzenesulfonamide] yielded a melting point of 198 to 200 °C. Also, on yeast α-glucosidase, the “α-glucosidase inhibitory activity, in words” value is “high inhibitory activity” and the IC50 is 127.24 ± 0.1 µM. In turn, `COc1ccc(S(=O)(=O)N=C(CCN2C(=O)c3ccccc3C2=O)N2CCCCC2)cc1` [Compound 4c, N-(3-(1,3-dioxoisoindolin-2-yl)-1-(piperidin-1-yl)propylidene)-4-methoxybenzenesulfonamide] registered a melting point of 146 to 148 °C. On yeast α-glucosidase, the “α-glucosidase inhibitory activity, in words” value was “good anti-α-glucosidase activity” and the IC50 turned out to be 200.29 ± 0.1 µM. Molecule `O=C1c2ccccc2C(=O)N1CCC(=NS(=O)(=O)c1ccccc1)N1CCOCC1` [Compound 4d, N-(3-(1,3-dioxoisoindolin-2-yl)-1-morpholinopropylidene)benzenesulfonamide] gave a melting point of 168 to 170 °C. For the same molecule, the “α-glucosidase inhibitory activity, in words” value on yeast α-glucosidase is “inactive”. `Cc1ccc(S(=O)(=O)N=C(CCN2C(=O)c3ccccc3C2=O)N2CCOCC2)cc1` [Compound 4e, N-(3-(1,3-Dioxoisoindolin-2-yl)-1-morpholinopropylidene)-4-methylbenzenesulfonamide] returned a melting point of 204 to 206 °C. On yeast α-glucosidase, the “α-glucosidase inhibitory activity, in words” value is on record as “high inhibitory activity” and the IC50 worked out at 117 ± 0.14 µM. Moreover, on α-amylase, the “inhibition effect against α-amylase” value is “no inhibition effect”. For `COc1ccc(S(=O)(=O)N=C(CCN2C(=O)c3ccccc3C2=O)N2CCOCC2)cc1` [Compound 4f, N-(3-(1,3-Dioxoisoindolin-2-yl)-1-morpholinopropylidene)-4-methoxybenzenesulfonamide], the melting point was in the range of 172 to 174 °C.

`O=C1c2ccccc2C(=O)N1CCC(=NS(=O)(=O)c1ccccc1)N(c1ccccc1)c1ccccc1` [Compound 4g, 3-(1,3-Dioxoisoindolin-2-yl)-N,N-diphenyl-N'-(phenylsulfonyl)propanimidamide]: the melting point was 202 to 204 °C. Also, on yeast α-glucosidase, the “α-glucosidase inhibitory activity, in words” value is “moderate inhibitory activity” and the IC50 turned out to be 478 ± 0.07 µM. For `Cc1ccc(S(=O)(=O)N=C(CCN2C(=O)c3ccccc3C2=O)N(c2ccccc2)c2ccccc2)cc1` [Compound 4h, 3-(1–3-Dioxoisoindolin-2-yl)-N,N-diphenyl-N’-tosylpropanimidamide] the same measures were 202 to 204 °C, “moderate α-glucosidase inhibitors” and 497 ± 0.25 µM.

As for `O=C1c2ccccc2C(=O)N1CCC(=NS(=O)(=O)c1ccccc1)N1CCC(Cc2ccccc2)CC1` [Compound 4i, N-(1-(4-benzylpiperidin-1-yl)-3-(1,3-dioxoisoindolin-2-yl)propylidene)benzenesulfonamide], on yeast α-glucosidase, the “α-glucosidase inhibitory activity, in words” value is recorded as “high inhibitory activity” and the IC50 was determined as 84.3 ± 0.4 µM. `COc1ccc(S(=O)(=O)N=C(CCN2C(=O)c3ccccc3C2=O)N2CCC(Cc3ccccc3)CC2)cc1` [Compound 4k]: the “α-glucosidase inhibitory activity, in words” value at yeast α-glucosidase is “inactive”. On to `O=C1c2ccccc2C(=O)N1CCC(=NS(=O)(=O)c1ccccc1)N1CCN(c2ccccc2)CC1` [Compound 4l, N-(3-(1,3-dioxoisoindolin-2-yl)-1-(4-phenylpiperazin-1-yl)propylidene)benzenesulfonamide], for which the melting point lay in the range of 160 to 164 °C. Take `NS(=O)(=O)c1ccc(N/N=C/c2coc3ccccc3c2=O)cc1` [D]: on α-glucosidase (Fig. 2, chromone-benzenesulfonamid D study), the IC50 was 20.1 µM. Turning to `O=C(N/N=C/c1ccc(OCCCN2C(=O)c3ccccc3C2=O)cc1)c1cc2ccccc2oc1=O` [E], the IC50 at α-glucosidase (Fig. 2, phthalimide-coumarin E study) is 85.2 µM.
